ChEMBL document CHEMBL4000146, “Synthesis, antiplasmodial activity and mechanistic studies of pyrimidine-5-carbonitrile and quinoline hybrids” (Eur J Med Chem, 2015)

How the values were obtained:
Plasmodium falciparum [1] = assay: microbe, parasite or virus in culture; settings: NF54
Human alphaherpesvirus 3 [2] = type: functional, cell-based; settings: Human alphaherpesvirus 3, 07-1, HEL
Coxsackievirus [3] = type: functional, cell-based; settings: B4, HeLa
Human alphaherpesvirus 3 [4] = type: functional, cell-based; settings: Human alphaherpesvirus 3, strain Oka vaccine, HEL
[5] = Cytotoxicity against human HeLa cells assessed as alteration of normal cell morphology by microscopic analysis; type: cell-based
HeLa = assay: Cytotoxicity against human HeLa cells assessed as inhibition of cell proliferation by Coulter counter analysis; type: cell-based
Human alphaherpesvirus 1 [6] = type: functional, cell-based; settings: Human alphaherpesvirus 1, KOS, HEL
Human betaherpesvirus 5 [7] = type: functional, cell-based; settings: Human betaherpesvirus 5, Davis, HEL
Plasmodium falciparum [8] = assay: Resistance index, ratio of IC50 for chloroquine-resistant asexual intraerythrocytic stage of Plasmodium falciparum Dd2 to IC50 for chloroquine-sensitive asexual intraerythrocytic stage of Plasmodium falciparum NF54; type: functional
CCRF-CEM = assay: Cytotoxicity against human CEM cells assessed as inhibition of cell proliferation by Coulter counter analysis; type: cell-based
[9] = Selectivity index, ratio of IC50 for human HeLa cells to IC50 for chloroquine-sensitive asexual intraerythrocytic stage of Plasmodium falciparum NF54; type: toxicity, cell-based; settings: read-out: Ratio IC50
unidentified adenovirus = type: functional, cell-based; settings: HEL
[10] = Cytotoxicity against human HEL cells assessed as inhibition of cell viability by colorimetric formazan-based MTS assay
Human orthopneumovirus = type: functional, cell-based; settings: human respiratory syncytial virus, HeLa
Human alphaherpesvirus 2 = type: functional, cell-based; settings: Human alphaherpesvirus 2, G, HEL
Plasmodium falciparum [11] = assay: microbe, parasite or virus in culture; settings: Dd2
Human alphaherpesvirus 1 [12] = type: functional, cell-based; settings: Human alphaherpesvirus 1, KOS, HEL; remark: listed apart in the source
[13] = Cytotoxicity against MDCK cells assessed as inhibition of cell viability by colorimetric formazan-based MTS assay; set-up: species or system Canis lupus familiaris; settings: dog
Human respirovirus 3 = type: functional; settings: Human respirovirus 3, Vero
[14] = Selectivity index, ratio of IC50 for human HeLa cells to IC50 for chloroquine-resistant asexual intraerythrocytic stage of Plasmodium falciparum Dd2; type: toxicity, cell-based; settings: read-out: Ratio IC50
Vaccinia virus = assay: microbe, parasite or virus in culture; settings: Orthopoxvirus vaccinia, HEL
Influenza A virus [15] = assay: microbe, parasite or virus in culture; settings: H1N1, MDCK
Human betaherpesvirus 5 [16] = type: functional, cell-based; settings: Human betaherpesvirus 5, AD169, HEL
[17] = Cytotoxicity against MDCK cells assessed as alteration of normal cell morphology by microscopic analysis; type: cell-based, Canis lupus familiaris; settings: dog
[18] = Cytotoxicity against african green monkey Vero cells assessed as alteration of normal cell morphology by microscopic analysis; type: cell-based; settings: chlorocebus sabaeus
[19] = system: Vesicular stomatitis virus; assay: microbe, parasite or virus in culture; settings: HeLa
[20] = system: Mammalian orthoreovirus 1; type: functional; settings: Mammalian orthoreovirus 1, Vero
[21] = Cytotoxicity against human HEL cells assessed as alteration of normal cell morphology by microscopic analysis; type: cell-based
Sindbis virus = type: functional; settings: Vero
Influenza A virus [22] = assay: microbe, parasite or virus in culture; settings: H3N2, MDCK
[23] = system: Vesicular stomatitis virus; assay: microbe, parasite or virus in culture; settings: HEL
Punta Toro virus = type: functional; settings: Vero
Coxsackievirus [24] = type: functional; settings: B4, Vero
L1210 = assay: Cytotoxicity against mouse L1210 cells assessed as inhibition of cell proliferation by Coulter counter analysis; type: cell-based
Influenza B virus = assay: microbe, parasite or virus in culture; settings: MDCK

| Compound | IC50 (Plasmodium falciparum [1]) | EC50 (Human alphaherpesvirus 3 [2]) | EC50 (Coxsackievirus [3]) | EC50 (Human alphaherpesvirus 3 [4]) | MCC [5] | IC50 (HeLa) | EC50 (Human alphaherpesvirus 1 [6]) | EC50 (Human betaherpesvirus 5 [7]) | Ratio IC50 (Plasmodium falciparum [8]) | IC50 (CCRF-CEM) | selectivity ratio [9] | EC50 (unidentified adenovirus) | CC50 [10] | EC50 (Human orthopneumovirus) | EC50 (Human alphaherpesvirus 2) | IC50 (Plasmodium falciparum [11]) | EC50 (Human alphaherpesvirus 1 [12]) | CC50 [13] | EC50 (Human respirovirus 3) | selectivity ratio [14] | other results |
| --- | --- | --- | --- | --- | --- | --- | --- | --- | --- | --- | --- | --- | --- | --- | --- | --- | --- | --- | --- | --- | --- |
| CSc1nc(NCCCNc2ccnc3cc(Cl)ccc23)c(C#N)c(-c2ccccc2)n1 | 0.134 µM | > 4 µM | > 20 µM | > 4 µM | 100 µM | 11 µM | > 4 µM | > 4 µM | 2.38 | 4.7 µM | 82.3 | > 20 µM | 43.4 µM | > 20 µM | > 4 µM | 0.319 µM | > 4 µM | 10.3 µM | > 20 µM | 34.4 | EC50 (Vaccinia virus): > 4 µM; EC50 (Influenza A virus [15]): > 4 µM; EC50 (Human betaherpesvirus 5 [16]): > 4 µM; MCC [17]: 20 µM; MCC [18]: 100 µM; EC50 [19]: > 20 µM; EC50 [20]: > 20 µM; MCC [21]: 20 µM; EC50 (Sindbis virus): > 20 µM; EC50 (Influenza A virus [22]): > 4 µM; EC50 [23]: > 4 µM; EC50 (Punta Toro virus): > 20 µM; EC50 (Coxsackievirus [24]): > 20 µM; IC50 (L1210): 4.7 µM; EC50 (Influenza B virus): > 4 µM |
| COc1ccc(-c2nc(SC)nc(NCCCCNc3ccnc4cc(Cl)ccc34)c2C#N)cc1OC | 0.193 µM | > 20 µM | > 20 µM | > 20 µM | 100 µM | 20 µM | > 100 µM | > 20 µM | 6.65 | 16 µM | 104 | > 20 µM | 84.1 µM | > 20 µM | > 100 µM | 1.28 µM | > 100 µM | 10 µM | > 100 µM | 15.5 | EC50 (Vaccinia virus): > 100 µM; EC50 (Influenza A virus [15]): > 4 µM; EC50 (Human betaherpesvirus 5 [16]): > 20 µM; MCC [17]: 20 µM; MCC [18]: > 100 µM; EC50 [19]: > 20 µM; EC50 [20]: > 100 µM; MCC [21]: ≥ 100 µM; EC50 (Sindbis virus): > 100 µM; EC50 (Influenza A virus [22]): > 4 µM; EC50 [23]: > 100 µM; EC50 (Punta Toro virus): > 100 µM; EC50 (Coxsackievirus [24]): > 100 µM; IC50 (L1210): 18 µM; EC50 (Influenza B virus): > 4 µM |
